Laboratory results published in the NIST ThermoML archive (doi:10.1021/je050200w).

Assay: xn = mol fraction of the nth substance listed
Settings: 101 kPa, Liquid

CCCCCCCCCCO [decan-1-ol] + CCCCCCCCO
Settings	mass density [kg/m3]	viscosity [mPa·s]
283.15 K, x2 = 0	836.6	22.06
283.15 K, x2 = 0.0995	836.1	21.14
283.15 K, x2 = 0.1998	835.7	20.23
283.15 K, x2 = 0.3007	835.3	19.39
283.15 K, x2 = 0.4001	834.9	18.46
283.15 K, x2 = 0.4996	834.5	17.59
283.15 K, x2 = 0.5988	834	16.69
283.15 K, x2 = 0.6998	833.6	15.82
283.15 K, x2 = 0.8001	833.1	15.11
283.15 K, x2 = 0.9	832.8	14.2
288.15 K, x2 = 0	833.3	17.99
288.15 K, x2 = 0.0995	832.7	17.18
288.15 K, x2 = 0.1998	832.3	16.53
288.15 K, x2 = 0.3007	831.9	15.64
288.15 K, x2 = 0.4001	831.5	15.11
288.15 K, x2 = 0.4996	831.1	14.23
288.15 K, x2 = 0.5988	830.6	13.71
288.15 K, x2 = 0.6998	830.2	13.02
288.15 K, x2 = 0.8001	829.7	12.25
288.15 K, x2 = 0.9	829.4	11.75
293.15 K, x2 = 0	829.9	14.39
293.15 K, x2 = 0.0995	829.3	13.84
293.15 K, x2 = 0.1998	828.9	13.31
293.15 K, x2 = 0.3007	828.5	12.67
293.15 K, x2 = 0.4001	828.1	12.26
293.15 K, x2 = 0.4996	827.7	11.59
293.15 K, x2 = 0.5988	827.2	11.05
293.15 K, x2 = 0.6998	826.9	10.32
293.15 K, x2 = 0.8001	826.3	9.75
293.15 K, x2 = 0.9	825.9	9.008
298.15 K, x2 = 0	826.5	11.74
298.15 K, x2 = 0.0995	825.9	11.31
298.15 K, x2 = 0.1998	825.5	10.94
298.15 K, x2 = 0.3007	825.1	10.53
298.15 K, x2 = 0.4001	824.7	10.07
298.15 K, x2 = 0.4996	824.3	9.596
298.15 K, x2 = 0.5988	823.8	9.244
298.15 K, x2 = 0.6998	823.4	8.756
298.15 K, x2 = 0.8001	822.8	8.308
298.15 K, x2 = 0.9	822.3	7.812
303.15 K, x2 = 0	823	9.561
303.15 K, x2 = 0.0995	822.5	9.231
303.15 K, x2 = 0.1998	822.1	8.924
303.15 K, x2 = 0.3007	821.7	8.589
303.15 K, x2 = 0.4001	821.3	8.213
303.15 K, x2 = 0.4996	820.8	7.898
303.15 K, x2 = 0.5988	820.4	7.57
303.15 K, x2 = 0.6998	820	7.259
303.15 K, x2 = 0.8001	819.4	6.992
303.15 K, x2 = 0.9	818.9	6.655
308.15 K, x2 = 0	819.6	8
308.15 K, x2 = 0.0995	819.1	7.768
308.15 K, x2 = 0.1998	818.7	7.492
308.15 K, x2 = 0.3007	818.3	7.211
308.15 K, x2 = 0.4001	817.8	6.961
308.15 K, x2 = 0.4996	817.4	6.672
308.15 K, x2 = 0.5988	816.9	6.389
308.15 K, x2 = 0.6998	816.5	6.143
308.15 K, x2 = 0.8001	815.9	5.851
308.15 K, x2 = 0.9	815.5	5.653
313.15 K, x2 = 0	816.3	6.831
313.15 K, x2 = 0.0995	815.6	6.649
313.15 K, x2 = 0.1998	815.2	6.408
313.15 K, x2 = 0.3007	814.8	6.189
313.15 K, x2 = 0.4001	814.4	5.979
313.15 K, x2 = 0.4996	813.9	5.711
313.15 K, x2 = 0.5988	813.5	5.513
313.15 K, x2 = 0.6998	813	5.287
313.15 K, x2 = 0.8001	812.4	5.057
313.15 K, x2 = 0.9	812	4.784
